According to patent publication US20090317376A1, “Compositions And Methods For Lipo Modeling” (Georgetown University MEDICAL SCHOOL, priority 2005, published 2009):
“Also recorded” adds a separate entry of the source.

System: abdominal fat pad
Test: Local NPY or Y2R antagonist treatment of the abdominal fat pad (ob/ob, WT, eNOS−/− mice)
Assay type: in vivo
Conditions: for fat in the region of the pellet (MRI thresholded for fat): compared to Placebo pellets, FIG. 9; for adipocyte number and size, Y2R staining in subcutaneous abdominal fat pad (immunohistochemistry): FIG. 10; for capillary density / density of von Willebrand factor positive microvessels in abdominal fat: Y2R antagonist intra-fat vs vehicle
Method: Eight week old ob/ob mice are used to study the growth of adipose tissue when treated with growth factor NPY versus antagonist. Whether the Y2R antagonist causes regression of fat deposits is determined using an antagonist in older 3-6 month old ob/ob mice. […] Fat pads (subcutaneous abdominal, omental, subcutaneous, sternal, and interscapular) are harvested and examined to determine whether there is hyperplasia, hypertrophy, or apoptosis of the fat cells. Whether NPY-mediated angiogenesis is involved in adipose tissue growth is determined. The anti-angiogenic effects and consequences of Y2R antagonist on adipose tissue growth is determined by subcutaneous injections of Y2R antagonist BIIE0246 (0.2 ml, 1 μM, daily/14 days) periabdominally into the abdominal fat pad or subcutaneous implantation of a slow-release pellet containing BIE0246 (10 μg/14 days) followed by an evaluation of the fat deposits by MRI. These fat pads are then harvested, weighed, and stained for endothelial markers and NPYRs. Fat pads are further characterized by RT-PCR, quantitative real-time PCR, and ELISA.
NPY slow-release pellets (1 μg/14 days) are inserted subcutaneously into the abdominal fat pad of ob/ob, C57BL/6 and SV129 WT mice. […] NPY pellets are also inserted into eNOS^−/− -mice. […] Specific peptide Y2R antagonist, BIIE0246, is subcutaneously injected periabdominally (0.2 ml, 1 μM, daily/14 days) or is given in the form of a slow release pellet (10 μg/14 days). […] Changes in visceral fat are visualized by MRI and quantified by volumetric calculations (FIG. 9). Fat pad weight is also measured upon euthanasia of the mice (FIG. 8).
In vivo treatment of murine model of obesity with antagonist: 6-week-old mice from four murine strains: C57BL-6, ob/ob, SV129, and eNOS^−/− are used. The mice are separated into treatment groups to compare the effects of diet, stress, NPY and specific receptor antagonists. The mice are weighed every other day during the course of the treatment. Control groups for the transgenic mice are matched by background strain, age, and gender. WT C57BL/6 mice (a background strain predisposed to weight gain [64]) is fed a “comfort food diet” consisting of lard and sugar and subjected to cold stress (1 hour in a cage with 1 cm of ice and water at the base of the cage). NPY is delivered locally by the implantation of a NPY slow-release pellet ([…]) into the abdominal fat pad. NPY receptor antagonists or antisense ODN is delivered by rotating daily subcutaneous injections (0.2 ml, 1 μM, daily/14 days) in the abdominal region. 20-mer phosphorothioate oligonucleotide antisense, targeted forward from rat Y2-gene transcription initiation codon (5-[…]-3′) (Molecular Research Laboratories, Herndon, Va.) is used. The scrambled antisense sequence contains some modified deoxynucleotides in a random order (5′-[…]-3′).
Tissue sample collection and processing: After treatment, fat pads are harvested from: 1) subcutaneous abdominal, 2) intra-abdominal (omental), 3) inguinal, 4) interscapular. The total central fat (abdominal region only) weight (FW) and FW to percent of body weight (F/B) is measured. The adipose tissue is processed for paraffin embedding and sections, […], are collected on glass slides for immunohistochemistry. 50 mg of tissue is used for quantitative real-time RT-PCR.
Magnetic Resonance Imaging (MRI): A Brukker 7-Tesla small-animal magnetic resonance imager coil is used to visualize and noninvasively quantitate various fat depots. A 3-dimensional (3D) T2-weighted (T2W) imaging protocol optimized for high contrast fat-imaging is implemented. […] Quantification of the total body fat as well as separate specific fat depots is calculated using thresholding and voxel count plugins from NIH image J software. VolumeJ is used to render, in a 3D image, the various fat depots.

[1] = NPY 1 μg/14 day-pellet, both obese and lean mice
[2] = NPY slow-release pellet 1 μg/14 days vs placebo, ob/ob, C57BL/6 and SV129 WT mice
[3] = 8-week old ob/ob mice, s.c. 0.2 ml, 1 μM, daily/14 days or pellet 10 μg/14 days, vs saline/PLC
[4] = BIIE0246 1 μM/day s.c. into the abdominal pads, within 2-weeks

Compound	subcutaneous abdominal adipose tissue volume (MRI) [1]	subcutaneous abdominal adipose tissue weight (g) [1]	WAT cellularity, proliferation of small adipocytes (NPY in WT mice)	FW to body weight ratio (F/B) (NPY pellet, eNOS−/− mice)	total central fat weight (FW) / fat pad weight (NPY pellet, eNOS−/− mice)	FW to body weight ratio (F/B) [2]	total central fat weight (FW) / fat pad weight [2]	fat in the region of the pellet (MRI thresholded for fat)	adipogenic activity in eNOS−/− mice (mice deficient in endothelial nitric oxide synthase)	visceral fat (ob/ob mice, NPY, FIG. 8)	adipocyte number and size, Y2R staining in subcutaneous abdominal fat pad (immunohistochemistry) (ob/ob mice)	decrease in F/B [3] [%]	decrease in FW [3] [%]	decrease of abdominal pad volume [4] [%]	decrease of abdominal pad weight [4] [%]	capillary density / density of von Willebrand factor positive microvessels in abdominal fat (listed as Y2R antagonist)	capillary density / density of von Willebrand factor positive microvessels in abdominal fat (listed as Y2R-antagonist)	TUNEL-positive staining of endothelial cells and adipocytes (intra-fat injections of Y2R antagonist)
neuropeptide Y [NPY]	significantly increased	significantly increased	mimicked	no significant weight gain	no significant weight gain	significant increase	significant increase; also recorded: Increase of fat pad weight	increased fat	resistant to NPY's adipogenic activity	increases visceral fat	greater number of smaller adipocytes							
N=C(N)NCCC[C@H](NC(=O)CC1(CC(=O)N2CCN(C3c4ccccc4NC(=O)c4ccccc43)CC2)CCCC1)C(=O)NCCn1c(=O)n(-c2ccccc2)n(-c2ccccc2)c1=O (some centres unmarked) [BIIE0246]								decreased fat			fewer but larger adipocytes and fewer Y2Rs	40	40	50	50	decreased the density of von Willebrand-positive microvessels	significant decrease in capillary density	increasing TUNEL-positive staining
